Test results as given in ChEMBL document CHEMBL4359858, “Potently inhibiting cancer cell migration with novel 3H-pyrazolo[4,3-f]quinoline boronic acid ROCK inhibitors” (Eur J Med Chem, 2019).
Active and inactive are the calls of the source. The calls are words filed in the database; no cut-off is given here.

What was measured:
[1] = target: T1, Rho-associated protein kinase 2 (Homo sapiens, UniProt O75116); experiment: Inhibition of active ROCK2 (R11-11G) (unknown origin) at 100 nM using S6K as substrate incubated for 3 hrs by ADP-Glo kinase assay relative to control
Target sequence in this assay (O75116 whole entry, looked up): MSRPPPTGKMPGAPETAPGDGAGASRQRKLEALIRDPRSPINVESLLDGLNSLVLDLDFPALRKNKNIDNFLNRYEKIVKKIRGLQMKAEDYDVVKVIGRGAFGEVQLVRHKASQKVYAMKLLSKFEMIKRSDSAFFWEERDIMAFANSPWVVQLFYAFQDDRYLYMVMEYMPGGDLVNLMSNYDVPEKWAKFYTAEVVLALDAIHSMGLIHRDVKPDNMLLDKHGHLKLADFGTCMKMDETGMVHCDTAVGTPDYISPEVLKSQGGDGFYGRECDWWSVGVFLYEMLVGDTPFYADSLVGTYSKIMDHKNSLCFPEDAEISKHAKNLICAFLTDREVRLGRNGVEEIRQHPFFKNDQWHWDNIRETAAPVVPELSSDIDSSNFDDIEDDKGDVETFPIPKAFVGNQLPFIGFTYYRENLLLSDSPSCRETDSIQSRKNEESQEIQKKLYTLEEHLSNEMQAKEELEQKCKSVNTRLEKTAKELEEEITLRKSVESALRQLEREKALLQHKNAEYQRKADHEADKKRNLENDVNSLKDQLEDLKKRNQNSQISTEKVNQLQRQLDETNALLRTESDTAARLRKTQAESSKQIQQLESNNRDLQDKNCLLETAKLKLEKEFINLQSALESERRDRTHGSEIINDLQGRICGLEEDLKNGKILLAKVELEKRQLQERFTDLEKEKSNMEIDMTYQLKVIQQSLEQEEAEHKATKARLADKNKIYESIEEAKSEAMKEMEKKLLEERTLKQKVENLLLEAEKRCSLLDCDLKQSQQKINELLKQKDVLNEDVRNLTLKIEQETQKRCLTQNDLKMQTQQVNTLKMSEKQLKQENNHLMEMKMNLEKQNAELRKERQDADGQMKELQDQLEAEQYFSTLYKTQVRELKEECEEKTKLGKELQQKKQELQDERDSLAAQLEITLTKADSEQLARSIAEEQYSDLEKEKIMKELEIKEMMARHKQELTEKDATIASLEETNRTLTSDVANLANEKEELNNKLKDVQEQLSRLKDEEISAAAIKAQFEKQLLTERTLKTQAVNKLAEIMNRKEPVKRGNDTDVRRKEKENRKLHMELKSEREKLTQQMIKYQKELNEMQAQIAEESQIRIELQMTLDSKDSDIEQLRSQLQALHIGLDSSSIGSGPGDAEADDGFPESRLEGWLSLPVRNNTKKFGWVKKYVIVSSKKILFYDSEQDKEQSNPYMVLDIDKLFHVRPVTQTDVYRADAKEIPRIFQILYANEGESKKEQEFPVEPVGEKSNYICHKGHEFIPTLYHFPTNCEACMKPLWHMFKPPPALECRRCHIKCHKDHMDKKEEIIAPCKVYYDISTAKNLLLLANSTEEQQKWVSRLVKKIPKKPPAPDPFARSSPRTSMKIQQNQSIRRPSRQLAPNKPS

[2] = system: MDA-MB-231; experiment: Cytotoxicity against human MDA-MB-231 cells assessed as reduction in cell viability at 5 uM incubated for 12 hrs by CellTiter-Blue assay; type: cell-based; conditions: mda-mb-231, 12 h
[3] = system: MDA-MB-231; experiment: Inhibition of cell migration of human MDA-MB-231 cells at 1 uM incubated for 24 hrs; type: functional, cell-based
[4] = target: T1, Rho-associated protein kinase 2; experiment: Inhibition of recombinant human GST-tagged ROCK2 (1 to 552 residues) using myelin basic protein as substrate incubated for 30 mins by ADP-Glo assay
Target sequence in this assay (O75116 whole entry): as the sequence (O75116 whole entry, looked up) above

[5] = target: T2, Rho-associated protein kinase 1 (Homo sapiens, UniProt Q13464); experiment: Inhibition of recombinant human GST-tagged ROCK1 (1 to 535 residues) using myelin basic protein as substrate incubated for 30 mins by ADP-Glo assay
T2 sequence (Q13464 whole entry, the tested form may be a part): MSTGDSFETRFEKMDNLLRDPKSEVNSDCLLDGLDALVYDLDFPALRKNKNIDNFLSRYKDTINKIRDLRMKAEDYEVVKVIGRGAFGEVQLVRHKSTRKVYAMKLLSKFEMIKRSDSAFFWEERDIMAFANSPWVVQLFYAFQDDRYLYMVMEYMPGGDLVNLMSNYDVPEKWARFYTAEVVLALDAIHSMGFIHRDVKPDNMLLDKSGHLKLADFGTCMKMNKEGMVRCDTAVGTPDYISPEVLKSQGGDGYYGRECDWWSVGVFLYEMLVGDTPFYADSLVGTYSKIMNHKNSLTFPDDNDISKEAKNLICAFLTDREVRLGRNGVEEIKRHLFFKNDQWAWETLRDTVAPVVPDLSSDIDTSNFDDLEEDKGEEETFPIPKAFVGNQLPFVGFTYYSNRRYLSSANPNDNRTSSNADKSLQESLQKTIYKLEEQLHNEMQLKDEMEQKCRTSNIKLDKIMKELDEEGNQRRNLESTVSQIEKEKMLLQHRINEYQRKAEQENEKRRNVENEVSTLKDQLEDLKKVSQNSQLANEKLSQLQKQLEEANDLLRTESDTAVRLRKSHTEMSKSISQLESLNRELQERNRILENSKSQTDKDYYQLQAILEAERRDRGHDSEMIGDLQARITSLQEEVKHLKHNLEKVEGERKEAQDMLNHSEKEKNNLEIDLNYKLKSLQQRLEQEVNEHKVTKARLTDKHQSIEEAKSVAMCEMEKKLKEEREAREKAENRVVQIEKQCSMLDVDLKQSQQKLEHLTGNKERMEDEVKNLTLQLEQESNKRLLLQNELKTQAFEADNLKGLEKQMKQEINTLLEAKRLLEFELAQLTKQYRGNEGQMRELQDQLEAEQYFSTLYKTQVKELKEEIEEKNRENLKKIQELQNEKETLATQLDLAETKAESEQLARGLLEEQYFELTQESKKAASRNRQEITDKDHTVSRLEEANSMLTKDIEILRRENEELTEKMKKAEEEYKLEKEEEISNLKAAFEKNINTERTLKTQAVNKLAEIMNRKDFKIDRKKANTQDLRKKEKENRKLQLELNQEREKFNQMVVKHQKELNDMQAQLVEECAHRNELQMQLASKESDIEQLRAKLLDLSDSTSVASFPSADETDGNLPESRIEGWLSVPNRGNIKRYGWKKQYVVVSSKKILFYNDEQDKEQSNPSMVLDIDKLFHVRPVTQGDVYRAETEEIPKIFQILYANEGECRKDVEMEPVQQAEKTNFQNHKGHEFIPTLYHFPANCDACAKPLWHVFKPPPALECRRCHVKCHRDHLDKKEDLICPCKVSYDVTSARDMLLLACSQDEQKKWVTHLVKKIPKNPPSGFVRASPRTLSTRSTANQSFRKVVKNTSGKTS

[6] = Cytotoxicity against human MDA-MB-231 cells assessed as cell viability at 10 uM incubated for 24 hrs by CellTiter-Blue assay relative to control; type: cell-based; conditions: read-out: Activity
[7] = target: T2, Rho-associated protein kinase 1; experiment: Inhibition of human ROCK1 using KEAKEKRQEQIAKRRRLSSLRASTSKSGGSQK as substrate incubated for 20 mins in presence of [gamma33P]ATP by filter binding method
[8] = target: T1, Rho-associated protein kinase 2; experiment: Inhibition of human ROCK2 using KEAKEKRQEQIAKRRRLSSLRASTSKSGGSQK as substrate incubated for 20 mins in presence of [gamma33P]ATP by filter binding method
Target sequence in this assay (O75116 whole entry): as the sequence (O75116 whole entry, looked up) above

[9] = Cytotoxicity against human MDA-MB-231 cells assessed as cell viability at 10 uM incubated for 12 hrs by CellTiter-Blue assay relative to control; type: cell-based; conditions: read-out: Activity
[10] = target: T2, Rho-associated protein kinase 1; experiment: Binding affinity to ROCK1 (unknown origin) incubated for 1 hrs by qPCR analysis
[11] = target: T1, Rho-associated protein kinase 2; experiment: Binding affinity to ROCK2 (unknown origin) incubated for 1 hr by qPCR analysis
Target sequence in this assay (O75116 whole entry): as the sequence (O75116 whole entry, looked up) above

Row | SMILES | inhibition [1] | further results
1 | OB(O)c1ccc(-c2nc3ccc4[nH]ncc4c3c3c2CCCC3)o1 | Active | 
2 | Cc1ccc(C(=O)OCc2ccc([C@@H](CN)C(=O)Nc3ccc4cnccc4c3)cc2)c(C)c1 |  | Activity [2]: Toxic; inhibition [3]: inactive
3 | OB(O)c1csc(-c2nc3ccc4[nH]ncc4c3c3c2CCCC3)c1 | Active | 
4 | c1csc(-c2nc3ccc4[nH]ncc4c3c3c2CCCC3)c1 | Active | 
5 | c1nc2ccc3[nH]ncc3c2c2c1CCCC2 | 10 to 15% | 
6 | COc1c(B(O)O)cccc1-c1nc2ccc3[nH]nc(C)c3c2c2c1CCC2 | 32% | 
7 | COc1ccc(-c2nc3ccc4[nH]ncc4c3c3c2CCCC3)cc1B(O)O | Active | 
8 | OB(O)c1cccc(-c2nc3ccc4[nH]ncc4c3cc2-c2ccc(F)c(Cl)c2)c1F | Active | 
9 | Cc1n[nH]c2ccc3nc(-c4sccc4B(O)O)c4c(c3c12)CCC4 | Active | 
10 | COc1c(B(O)O)cccc1-c1nc2ccc3[nH]ncc3c2cc1-c1ccc(Cl)cc1 | Active | 
11 | OB(O)c1ccc(-c2cc(-c3ccc(F)c(Cl)c3)c3c(ccc4[nH]ncc43)n2)cc1F | 10 to 15% | 
12 | OB(O)c1ccc(-c2nc3ccc4[nH]ncc4c3c3c2CCCC3)cc1F | Active | 
13 | COc1c(B(O)O)cccc1-c1cc(-c2ccc(F)c(Cl)c2)c2c(ccc3[nH]ncc32)n1 | 10 to 15% | 
14 | OB(O)c1ccc(-c2nc3ccc4[nH]ncc4c3c3c2CCCC3)cc1 | Active | 
15 | COc1nc(N[C@H]2CC[C@H](N)CC2)c(F)cc1C(N)=O |  | IC50 [4]: 7.8 nM; IC50 [5]: 10 nM
16 | COc1c(B(O)O)cccc1-c1nc2ccc3[nH]ncc3c2cc1C | Active | 
17 | COc1c(B(O)O)cccc1-c1cc(-c2cc(F)cc(F)c2)c2c(ccc3[nH]ncc32)n1 | 10 to 15% | 
18 | OB(O)c1cccc(-c2nc3ccc4[nH]ncc4c3cc2-c2ccccc2)c1F | Active | 
19 | COc1c(B(O)O)cccc1-c1nc2ccc3[nH]ncc3c2cc1-c1ccncc1 | Active | 
20 | COc1c(B(O)O)cccc1-c1nc2ccc3[nH]ncc3c2c2c1CCC2 | 59% | viability at 24 h, 10 µM [6]: 60 to 63%; IC50 [7]: 1.22 nM; IC50 [8]: 0.51 nM; viability at 12 h, 10 µM [9]: 75 to 80%; inhibition [3]: Active; Kd [10]: 1.5 to 1.8 nM; Kd [11]: 1.2 to 1.3 nM
21 | c1cc(-c2nc3ccc4[nH]ncc4c3c3c2CCCC3)cs1 | Active | 
22 | OB(O)c1cccc(-c2nc3ccc4[nH]ncc4c3c3c2CCCC3)c1 | Active | 
23 | OB(O)c1cccc(-c2nc3ccc4[nH]ncc4c3c3c2CCCC3)c1F | Active | 
